Measurements reported in patent publication US20030100024A1, “Method and apparatus for high throughput cell-based assays for screening and diagnostics” (priority 2000, published 2003).

Test system: PC12 cells
Assay: neurite outgrowth from PC12 cells measured by laser scanning line amplitudes
Format: cell-based
Conditions: NGF added, after six days, FIG. 5
Source text: The method of the invention was applied to the measurement of neurite outgrowth from PC12 cells. The neurites are much smaller than the cells and the laser beam, being only one micron in diameter in some cases. […] The extent of differentiation can be measured by considering the characteristic gaussian fit, multi-peaks ratio, sample width and number of inflections of the line amplitudes of the two populations. Any combination of these measurements from the line amplitudes may be used as a quantitative measure of differentiation.
If the line-to-line spacing of the scan is sufficiently small it is also possible to produce a representation of each cell in 3D (FIG. 6). This provides confirmation of the ability of the method to characterise differentiation.

nerve growth factor [NGF]
differentiation (neurite outgrowth) of the cell population: the majority differentiated with neurite outgrowths
